Data as given in ChEMBL document CHEMBL1131006, “Antimycobacterial activity of substituted isosteres of pyridine- and pyrazinecarboxylic acids” (1998).
In brackets after ≈: the same amount, converted by molar mass.

System: Mycobacterium tuberculosis
Experiment: Compound was tested for inhibitory activity against Mycobacterium tuberculosis H37Rv ATCC 27294 and the activity is expressed as minimum inhibitory concentration (MIC).
Format: functional

Point of comparison: `CSCC(=O)c1ccncc1`, MIC 210 µg/mL (≈ 1260 µM). Against it:
- CC(C)(C)C(=O)OCn1nnnc1-c1cnccn1 — 16-fold lower, 13 µg/mL (≈ 49.6 µM)
- c1cnc(C2N=NN=N2)cn1 — higher, > 210 µg/mL
- CC(C)(C)C(=O)OCn1nnc(-c2cccnc2)n1 — 16-fold lower, 13 µg/mL (≈ 49.8 µM)
- CC(=O)Oc1cc(=O)oc2cnccc12 — higher, > 210 µg/mL
- C[S+]([O-])CC(=O)c1cccnc1 (stereo unspecified) — higher, > 210 µg/mL
- CC(C)(C)C(=O)OCn1nnnc1-c1ccncc1 — 4-fold lower, 52 µg/mL (≈ 199 µM)
- O=c1cc(O)c2ccncc2o1 — higher, > 210 µg/mL
- c1cc(C2N=NN=N2)ccn1 — higher, > 210 µg/mL
- C[S+]([O-])CC(=O)c1ccncc1 (stereo unspecified) — higher, > 210 µg/mL
- CSCC(=O)c1cccnc1 — the same, 210 µg/mL (≈ 1260 µM)
- C[S+]([O-])CC(=O)c1cnccn1 (stereo unspecified) — higher, > 210 µg/mL
- CC(C)(C)C(=O)OCn1nnnc1-c1cccnc1 — 2-fold lower, 105 µg/mL (≈ 402 µM)
- c1cncc(C2N=NN=N2)c1 — higher, > 210 µg/mL
- CSCC(=O)c1cnccn1 — 2-fold lower, 105 µg/mL (≈ 624 µM)
- CC(C)(C)C(=O)OCn1nnc(-c2cnccn2)n1 — 8.1-fold lower, 26 µg/mL (≈ 99.1 µM)
- CCOC(=O)Oc1cc(=O)oc2cnccc12 — higher, > 210 µg/mL
- O=C(Oc1cc(=O)oc2cnccc12)c1ccccc1 — the same, 210 µg/mL (≈ 786 µM)
- CC(C)(C)C(=O)OCn1nnc(-c2ccncc2)n1 — 8.1-fold lower, 26 µg/mL (≈ 99.5 µM)
- NNC(=O)c1ccncc1 [ISONIAZID] — lower, < 0.02 µg/mL
- NC(=O)c1cnccn1 [PYRAZINAMIDE] — 4-fold lower, 52 µg/mL (≈ 422 µM)
